{
  "source": "patent US20160029683A1",
  "about": "“LOW CALORIE INFANT FORMULA CONTAINING BETA-HYDROXY-BETA-METHYLBUTYRIC ACID” (ABBOTT LABORATORIES, priority 2013, published 2016)",
  "key": {"[1]": {"system": "protein synthesis in the lung", "experiment": "Fractional rate of protein synthesis in the lung of HMB-infused piglets", "format": "in vivo, neonatal pigs", "details": "infusion rate of 20 μmol·kg^−1·hour^−1 HMB for one hour", "method": "(§1) Overnight fasted neonatal pigs (5-7 days old) were infused with HMB with 0, 20, 100, or 400 μmol·kg^−1·hr^−1 HMB. Blood plasma concentrations of the following circulating substrates were measured. HMB was measured using gas chromatography per the method set forth in: Nissen, Steven (1990). Analysis of β-Hydroxy-β-methyl Butyrate in Plasma by Gas […] Chromatography and Mass Spectrometry Analytical Biochemistry 188, 17-19.\n(§2) At the end of the infusion, the piglets were sacrificed and the fractional protein synthesis rates were measured by measuring ^3H incorporation into protein fractions after a flooding dose of L[4-^3H]phenylalanine using the method set forth in Garlick P. J. (1980). A rapid and convenient technique for measuring the rate of protein synthesis in tissues by injection of [3H]Phenylalanine Biochem J 192:719-723. Activation of translation initiation was measured in the stomach, duodenum, jejunum, colon, pancreas, kidney, brain and skin. The abundance of intracellular proteins involved in signaling of protein synthesis and in processes related to protein degradation was measured in tissue homogenates by immunoblotting using commercially available antibodies."}, "MURF1": {"system": "MURF1", "experiment": "Expression of MURF1 in muscles", "format": "in vivo, neonatal pigs", "method": "as §1, §2\nMURF1 is a muscle-specific ubiquitin ligase."}, "Atrogin-1": {"system": "Atrogin-1", "experiment": "Expression of Atrogin-1 in muscles", "format": "in vivo, neonatal pigs", "method": "as §1, §2\nAtrogin-1 is a muscle-specific ubiquitin ligase."}, "[2]": {"experiment": "Blood plasma concentration of HMB in piglets infused with HMB", "format": "in vivo, neonatal pigs", "details": "pig, intravenous", "method": "as §1"}, "[3]": {"system": "protein synthesis in skeletal muscles", "experiment": "Fractional rate of protein synthesis in skeletal muscles of HMB-infused piglets", "format": "in vivo, neonatal pigs", "method": "as §1, §2"}, "LC3-II/LC3-I": {"system": "LC3-II/LC3-I", "experiment": "Ratio of LC3-II/LC3-I in muscles", "format": "in vivo, neonatal pigs", "method": "as §1, §2\nThe ratio of LC3-II/LC3-I is an indicator of autophagy/lysosomal protein degradation."}, "mTORC1": {"system": "mTORC1", "experiment": "mTORC1 signaling to translation (overall analysis)", "format": "in vivo, neonatal pigs", "details": "overall analysis of the piglet data", "method": "as §1, §2"}, "amino acid transporters": {"system": "amino acid transporters", "experiment": "Level of amino acid transporters", "format": "in vivo, neonatal pigs", "details": "overall analysis of the piglet data", "method": "as §2"}, "[4]": {"system": "protein synthesis in the spleen", "experiment": "Fractional rate of protein synthesis in the spleen of HMB-infused piglets", "format": "in vivo, neonatal pigs", "details": "infusion rate of 20 μmol·kg^−1·hour^−1 HMB for one hour", "method": "as §1, §2"}, "eEF2": {"system": "eEF2", "experiment": "Phosphorylation of eEF2 in muscles", "format": "in vivo, neonatal pigs", "method": "as §1, §2\nThe formation of phosphorylation of eEF2 regulates […]."}, "S6K1": {"system": "S6K1", "experiment": "Phosphorylation of S6K1 in muscles (immunoblotting)", "format": "in vivo, neonatal pigs", "method": "as §1, §2\nThe phosphorylation of S6K1 is an indicator of mTORC1 signaling to translation."}, "[5]": {"system": "protein degradation in the muscles of adults", "details": "literature (Smith 2004, 2005); cited from earlier work"}, "4EBP1": {"system": "4EBP1", "experiment": "Phosphorylation of 4EBP1 in muscles (immunoblotting)", "format": "in vivo, neonatal pigs", "method": "as §1, §2\nThe phosphorylation of 4EBP1 is an indicator of mTORC1 signaling to translation."}, "[6]": {"system": "markers of protein degradation", "experiment": "Markers of protein degradation (overall analysis)", "format": "in vivo, neonatal pigs", "details": "overall analysis of the piglet data", "method": "as §1, §2"}, "elF4E·elF4G complex": {"system": "elF4E·elF4G complex", "experiment": "Formation of the active elF4E·elF4G complex in muscles", "format": "in vivo, neonatal pigs"}, "[7]": {"system": "protein synthesis in longissimus dorsi, gastrocnemius, soleus, diaphragm, duodenum and brain", "experiment": "Comparison of protein synthesis rates after infusion of HMB or leucine", "format": "in vivo, neonatal pigs", "details": "HMB 20, 100 or 400 μmol kg^−1 h^−1 vs leucine 400 μmol·kg^−1·hour^−1", "method": "as §1, §2"}, "elF2α": {"system": "elF2α", "experiment": "Phosphorylation of elF2α in muscles", "format": "in vivo, neonatal pigs", "method": "as §1, §2\nThe formation of phosphorylation of elF2α regulates tRNA-ribosome binding."}, "[8]": {"details": "20 μmol·kg^−1·hour^−1 HMB for one hour"}, "[9]": {"details": "100 μmol·kg^−1·hour^−1 HMB for one hour"}, "[10]": {"details": "20 μmol·kg^−1·hour^−1 HMB for one hour, diaphragm"}, "[11]": {"details": "20 μmol·kg^−1·hour^−1 HMB for one hour, longissimus dorsi, gastrocnemius and soleus"}, "[12]": {"details": "100 μmol·kg^−1·hour^−1 HMB for one hour, longissimus dorsi, gastrocnemius and soleus"}, "[13]": {"details": "100 μmol·kg^−1·hour^−1 HMB for one hour, diaphragm"}},
  "note": "Entries after “also recorded” stand apart in the source; their conditions may differ.",
  "data": [
    {"compound": "CC(C)(O)CC(=O)O", "note": "[HMB, beta-hydroxy-beta-methylbutyric acid]", "values": [
      {"measurement": "protein synthesis in the lung", "setting": "[1]", "result": "increase"},
      {"measurement": "expression of MURF1", "setting": "MURF1; [8]", "result": "did not affect"},
      {"measurement": "expression of MURF1", "setting": "MURF1; [9]", "result": "did not affect"},
      {"measurement": "expression of Atrogin-1", "setting": "Atrogin-1; [8]", "result": "did not affect"},
      {"measurement": "expression of Atrogin-1", "setting": "Atrogin-1; [9]", "result": "did not affect"},
      {"measurement": "concentration at 1 h", "setting": "[2]; piglets infused with 20 μmol·kg^−1·hr^−1 HMB", "result": 90, "unit": "µM"},
      {"measurement": "concentration at 1 h", "setting": "[2]; piglets infused with 100 μmol·kg^−1·hr^−1 HMB", "result": 316, "unit": "µM"},
      {"measurement": "concentration at 1 h", "setting": "[2]; piglets infused with 400 μmol·kg^−1·hr^−1 HMB", "result": 1400, "unit": "µM"},
      {"measurement": "fractional rates of protein synthesis in the skeletal muscles", "setting": "[3]; 20 μmol·kg^−1·hour^−1 HMB, longissimus dorsi, gastrocnemius, soleus and diaphragm, P<0.05", "result": "increased"},
      {"measurement": "protein synthesis in the gastrocnemius, soleus and diaphragm muscles", "setting": "[3]; 100 μmol·kg^−1·hour^−1 HMB", "result": "not significantly"},
      {"measurement": "protein synthesis in the longissimus dorsi muscle", "setting": "[3]; 100 μmol·kg^−1·hour^−1 HMB, P<0.05", "result": "increased"},
      {"measurement": "protein synthesis in the skeletal muscles", "setting": "[3]; 400 μmol·kg^−1·hour^−1 HMB", "result": "no significant effect"},
      {"measurement": "impact on protein synthesis in 4 muscles (fast twitch, slow twitch, voluntary and involuntary)", "setting": "[3]; highest dose, 400 μmol kg^−1 h^−1, compared with other doses", "result": "least impact"},
      {"measurement": "impact on protein synthesis in 4 muscles (fast twitch, slow twitch, voluntary and involuntary)", "setting": "[3]; lowest dose of HMB 20 μmol kg^−1 h^−1, compared with other doses", "result": "greatest impact"},
      {"measurement": "ratio of LC3-II/LC3-I", "setting": "LC3-II/LC3-I; [8]", "result": "did not affect"},
      {"measurement": "ratio of LC3-II/LC3-I", "setting": "LC3-II/LC3-I; [9]", "result": "did not affect"},
      {"measurement": "activation of protein synthesis via mTORC1", "setting": "mTORC1", "result": "activated protein synthesis by inducing mTORC1"},
      {"measurement": "level of amino acid transporters", "setting": "amino acid transporters", "result": "did not affect"},
      {"measurement": "protein synthesis in the spleen", "setting": "[4]", "result": "increase"},
      {"measurement": "phosphorylation of eEF2", "setting": "eEF2; [8]", "result": "did not affect"},
      {"measurement": "phosphorylation of eEF2", "setting": "eEF2; [9]", "result": "did not affect"},
      {"measurement": "phosphorylation of S6K1", "setting": "S6K1; [10]", "result": "increased"},
      {"measurement": "phosphorylation of S6K1", "setting": "S6K1; [11]", "result": "increased"},
      {"measurement": "phosphorylation of S6K1", "setting": "S6K1; [12]", "result": "increased"},
      {"measurement": "protein degradation in the muscles of adults", "setting": "[5]", "result": "attenuates protein degradation"},
      {"measurement": "phosphorylation of 4EBP1", "setting": "4EBP1; [10]", "result": "increased"},
      {"measurement": "phosphorylation of 4EBP1", "setting": "4EBP1; [11]", "result": "increased"},
      {"measurement": "phosphorylation of 4EBP1", "setting": "4EBP1; [13]", "result": "not"},
      {"measurement": "phosphorylation of 4EBP1", "setting": "4EBP1; [12]", "result": "increased"},
      {"measurement": "markers of protein degradation", "setting": "[6]", "result": "did not affect"},
      {"measurement": "formation of active eIF4E·eIF4G complex", "setting": "elF4E·elF4G complex; [10]", "result": "increased"},
      {"measurement": "formation of active eIF4E·eIF4G complex", "setting": "elF4E·elF4G complex; [11]", "result": "increased"},
      {"measurement": "formation of active eIF4E·eIF4G complex", "setting": "elF4E·elF4G complex; [13]", "result": "not"},
      {"measurement": "formation of active eIF4E·eIF4G complex", "setting": "elF4E·elF4G complex; [12]", "result": "increased"},
      {"measurement": "effectiveness in increasing protein synthesis compared with leucine", "setting": "[7]", "result": "equal to or more effective; also recorded: as effective as leucine"},
      {"measurement": "phosphorylation of elF2α", "setting": "elF2α; [8]", "result": "did not affect"},
      {"measurement": "phosphorylation of elF2α", "setting": "elF2α; [9]", "result": "did not affect"}
    ]}
  ]
}
